Drawing on ChEMBL document CHEMBL1909607, “Synthesis and radioligand binding studies of bis-(8-isopropyl-isoquinolinium) derivatives as ligands for apamin-sensitive sites on cloned SK2 and SK3 channels” (Bioorg Med Chem Lett, 2011), this text covers inhibition, Ki and IC50 for ten compounds.

Holding throughout (assay type): cell-based
Test [1] concerns the target T1, Small conductance calcium-activated potassium channel protein 2 (Homo sapiens, UniProt Q9H2S1). The experiment in a line: Inhibition of cloned SK2 channel expressed in human HEK293 cells at 10 uM.
Test [2] concerns the target T1, Small conductance calcium-activated potassium channel protein 2. The experiment in a line: Displacement of [125I]-apamin from cloned SK2 channel expressed in human HEK293 cells after 1 hr by liquid scintillation counting.
Test [3] deals with T2, Small conductance calcium-activated potassium channel protein 3 (Homo sapiens, UniProt Q9UGI6). The experiment in a line: Displacement of [125I]-apamin from cloned SK3 channel expressed in human HEK293 cells after 1 hr by liquid scintillation counting. On the technique in general: Displacement assays read how much labelled ligand stays bound in the presence of the test substance.

Test [4] deals with T2, Small conductance calcium-activated potassium channel protein 3. The experiment in a line: Inhibition of cloned human SK3 channel expressed in human HEK293 cells by patch clamp assay in the presence of 1 uM intracellular Ca2+. In general terms: The patch-clamp technique gives a direct electrical read-out from membranes.
Test [5] has as its target Small conductance calcium-activated potassium channel protein 2 (Rattus norvegicus, UniProt P70604). The experiment in a line: Inhibition of cloned rat SK2 channel expressed in human HEK293 cells by patch clamp assay in the presence of 1 uM intracellular Ca2+.

T1 sequence (Q9H2S1 whole entry): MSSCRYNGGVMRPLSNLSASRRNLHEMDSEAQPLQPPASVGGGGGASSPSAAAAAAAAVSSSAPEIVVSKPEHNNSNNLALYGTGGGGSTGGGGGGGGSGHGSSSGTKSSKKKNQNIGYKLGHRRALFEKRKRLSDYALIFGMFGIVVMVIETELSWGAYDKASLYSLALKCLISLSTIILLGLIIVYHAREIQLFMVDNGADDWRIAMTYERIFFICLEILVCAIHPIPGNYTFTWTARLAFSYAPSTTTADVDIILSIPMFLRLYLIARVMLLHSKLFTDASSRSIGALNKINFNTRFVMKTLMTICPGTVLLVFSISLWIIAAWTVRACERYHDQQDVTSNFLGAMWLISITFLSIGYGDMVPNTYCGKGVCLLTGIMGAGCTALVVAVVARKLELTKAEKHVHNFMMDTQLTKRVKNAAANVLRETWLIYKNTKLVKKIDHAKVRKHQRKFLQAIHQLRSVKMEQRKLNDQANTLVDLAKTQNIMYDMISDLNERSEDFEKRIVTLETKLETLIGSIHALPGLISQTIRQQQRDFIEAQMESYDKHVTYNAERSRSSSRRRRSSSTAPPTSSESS
T2 sequence (Q9UGI6 whole entry): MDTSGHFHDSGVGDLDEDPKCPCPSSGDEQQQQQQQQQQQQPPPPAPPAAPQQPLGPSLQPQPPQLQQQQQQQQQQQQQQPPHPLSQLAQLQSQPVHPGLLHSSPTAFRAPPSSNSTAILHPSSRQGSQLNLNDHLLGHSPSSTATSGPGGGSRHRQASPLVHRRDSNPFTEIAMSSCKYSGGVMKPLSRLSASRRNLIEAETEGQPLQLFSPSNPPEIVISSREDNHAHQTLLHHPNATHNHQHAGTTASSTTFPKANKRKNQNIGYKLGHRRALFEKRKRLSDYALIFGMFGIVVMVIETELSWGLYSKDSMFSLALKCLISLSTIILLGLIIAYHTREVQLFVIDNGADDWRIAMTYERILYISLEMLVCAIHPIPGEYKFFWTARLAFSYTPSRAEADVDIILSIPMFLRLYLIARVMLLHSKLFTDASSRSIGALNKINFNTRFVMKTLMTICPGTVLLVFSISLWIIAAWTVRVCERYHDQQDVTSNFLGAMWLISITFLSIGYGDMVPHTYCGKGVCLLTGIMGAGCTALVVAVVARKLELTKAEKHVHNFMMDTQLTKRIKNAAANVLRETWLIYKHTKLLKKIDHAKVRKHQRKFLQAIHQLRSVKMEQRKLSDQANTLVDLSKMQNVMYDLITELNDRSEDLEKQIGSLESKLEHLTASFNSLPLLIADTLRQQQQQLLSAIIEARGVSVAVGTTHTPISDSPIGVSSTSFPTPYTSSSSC
Chain of Small conductance calcium-activated potassium channel protein 2 (Rattus norvegicus, UniProt P70604) (P70604 whole entry): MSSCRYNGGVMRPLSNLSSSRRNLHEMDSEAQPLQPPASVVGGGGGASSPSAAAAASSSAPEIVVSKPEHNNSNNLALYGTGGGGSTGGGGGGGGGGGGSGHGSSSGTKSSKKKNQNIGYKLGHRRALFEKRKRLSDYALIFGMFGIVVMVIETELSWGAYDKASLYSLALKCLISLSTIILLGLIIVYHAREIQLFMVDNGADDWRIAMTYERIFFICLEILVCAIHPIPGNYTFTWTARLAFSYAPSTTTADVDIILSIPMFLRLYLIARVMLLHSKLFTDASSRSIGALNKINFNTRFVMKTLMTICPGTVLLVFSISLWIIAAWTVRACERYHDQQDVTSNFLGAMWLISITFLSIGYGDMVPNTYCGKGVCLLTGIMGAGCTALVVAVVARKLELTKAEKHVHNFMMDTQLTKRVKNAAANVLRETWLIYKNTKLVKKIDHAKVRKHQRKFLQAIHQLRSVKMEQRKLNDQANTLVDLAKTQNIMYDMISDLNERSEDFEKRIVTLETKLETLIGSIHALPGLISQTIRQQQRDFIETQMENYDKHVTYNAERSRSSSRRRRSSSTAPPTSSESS

The term inhibition denotes the drop in the measured response relative to a control, in per cent. `CC(C)c1cccc2c1C(CCCCC1c3c(cccc3C(C)C)CCN1C)N(C)CC2` (racemic): in test [1], the inhibition amounted to 41%.

`CC(C)c1cccc2c1C(CCCC1c3c(cccc3C(C)C)CCN1C)N(C)CC2` (racemic): the inhibition in test [1] was 41%.

One may read the Ki as the dissociation constant of the complex between target and ligand, obtained from inhibition or displacement. Consider `CC(C)c1cccc2cc[n+](C)c(Cc3ccc(Cc4c5c(C(C)C)cccc5cc[n+]4C)cc3)c12`, for which the Ki amounted to 0.397 µM in test [2] and 1.27 µM in test [3].

In the case of `CC(C)c1cccc2c1C(Cc1cccc(CC3c4c(cccc4C(C)C)CCN3C)c1)N(C)CC2` (racemic), in test [1], the inhibition was determined as 41%.

With `CC(C)c1cccc2cc[n+](C)c(CCCc3c4c(C(C)C)cccc4cc[n+]3C)c12`, the Ki in test [2] was 0.593 µM; in test [3] it was 0.837 µM.

A word on the IC50: it is the concentration at which inhibition is half-maximal. In the case of `CC(C)c1cccc2cc[n+](C)c(Cc3cccc(Cc4c5c(C(C)C)cccc5cc[n+]4C)c3)c12`, the results for the IC50 in test [4] and in test [5] were 2.97 µM and 1.6 µM, respectively. In addition, the Ki in test [2] stood at 0.09 µM; in test [3], 0.046 µM.

As to `CC(C)c1cccc2cc[n+](C)c(CCCCc3c4c(C(C)C)cccc4cc[n+]3C)c12`, the inhibition constant Ki in test [2] turned out to be 0.194 µM; in test [3], 0.214 µM.

With `CC(C)c1cccc2cc[n+](C)c(CCCCCc3c4c(C(C)C)cccc4cc[n+]3C)c12`, the Ki in test [2] is 0.878 µM; in test [3] it was 0.575 µM.

On to `CC(C)c1cccc2c1C(Cc1ccc(CC3c4c(cccc4C(C)C)CCN3C)cc1)N(C)CC2` (racemic), for which the inhibition in test [1] is 41%.

Consider `CC(C)c1cccc2c1C(CCCCCC1c3c(cccc3C(C)C)CCN1C)N(C)CC2` (racemic), for which the inhibition in test [1] came out at 41%.
